Active and inactive are the calls of the source. The rule behind the calls is not given here.
Columns and labels:
[1] = Cytotoxicity against MDCK cells after 48 hrs by MTT assay; format: cell-based, Canis lupus familiaris; details: dog
[2] = Selectivity index, ratio of CC50 for MDCK cells to IC50 for amantadine/oseltamivir-susceptible Influenza A virus (A/Singapore/1/57(H2N2)); format: toxicity; details: dog, read-out: Ratio CC50/IC50
[3] = Selectivity index, ratio of CC50 for MDCK cells to IC50 for amantadine/oseltamivir-susceptible Influenza A virus (A/mallard/Pennsylvania/10218/84(H5N2)); format: toxicity; details: dog, read-out: Ratio CC50/IC50
Influenza A virus [4] = test: Antiviral activity against amantadine/oseltamivir-susceptible Influenza A virus (A/mallard/Pennsylvania/10218/84(H5N2)) infected in MDCK cells assessed as inhibition of viral replication after 48 hrs by hemagglutination test; format: functional, organism-based, Influenza A virus (A/mallard/Pennsylvania/10218/1984(H5N2))
Influenza A virus [5] = test: Antiviral activity against amantadine/oseltamivir-susceptible Influenza A virus (A/mallard/Netherlands/12/00(H7N3)) infected in MDCK cells assessed as inhibition of viral replication after 48 hrs by hemagglutination test; format: functional, organism-based, Influenza A virus (A/mallard/Netherlands/12/2000(H7N3))
H3N2 subtype = test: Antiviral activity against amantadine/oseltamivir-susceptible Influenza A virus (A/Aichi/2/68(H3N2)) infected in MDCK cells assessed as inhibition of viral replication after 48 hrs by hemagglutination test; format: functional, organism-based; details: A/Aichi/2/1968(H3N2)
[6] = Selectivity index, ratio of CC50 for MDCK cells to IC50 for amantadine/oseltamivir-susceptible Influenza A virus (A/Aichi/2/68(H3N2)); format: toxicity; details: dog, read-out: Ratio CC50/IC50
[7] = Selectivity index, ratio of CC50 for MDCK cells to IC50 for amantadine/oseltamivir-susceptible Influenza A virus (A/mallard/Netherlands/12/00(H7N3)); format: toxicity; details: dog, read-out: Ratio CC50/IC50
Influenza A virus [8] = test: Antiviral activity against amantadine/oseltamivir-susceptible Influenza A virus (A/Singapore/1/57(H2N2)) infected in MDCK cells assessed as inhibition of viral replication after 48 hrs by hemagglutination test; format: functional, organism-based, Influenza A virus (A/Singapore/1/1957(H2N2))
Influenza A virus [9] = test: Antiviral activity against Influenza A virus (A/Puerto Rico/8/34(H1N1)) infected in MDCK cells assessed as inhibition of viral replication at 500 uM up to 2 hrs post-infection by hemagglutination test; format: functional, organism-based; details: A/Puerto Rico/8/1934(H1N1)

Row | Structure (SMILES) | CC50 at 48 h [1] | further results
1 | C[C@@H]1CC[C@@H]2[C@@H](C1)OC(C)(C)C[C@@]2(C)O | > 1420 µM | selectivity ratio [2]: 1570; selectivity ratio [3]: 9; IC50 (Influenza A virus [4]): 160 µM; IC50 (Influenza A virus [5]): 613 µM; IC50 (H3N2 subtype): > 1420 µM; selectivity ratio [6]: 1; selectivity ratio [7]: 2; IC50 (Influenza A virus [8]): 0.9 µM; inhibition (Influenza A virus [9]): Active
2 | NC(=O)c1ncn([C@@H]2O[C@H](CO)[C@@H](O)[C@H]2O)n1 [RIBAVIRIN] | > 2130 µM | 
3 | C[C@@H]1CC[C@@H]2[C@H](C1)OC1(CCCCCC1)C[C@@]2(C)O | 210 µM | 
4 | CCC[C@H]1C[C@@](C)(O)[C@@H]2CC[C@@H](C)C[C@H]2O1 | > 1330 µM | 
5 | CCC1(CC)C[C@@](C)(O)[C@@H]2CC[C@@H](C)C[C@@H]2O1 | 188 µM | 
6 | CCCC1(CCC)C[C@@](C)(O)[C@@H]2CC[C@@H](C)C[C@@H]2O1 | 131 µM | 
7 | C[C@@H]1CC[C@@H]2[C@@H](C1)OC(C)(C)C[C@]2(C)O | 816 µM | 
8 | C[C@@H]1CC[C@@H]2[C@H](C1)OC1(CCCCC1)C[C@@]2(C)O | 627 µM | 
9 | C[C@@H]1CC[C@@H]2[C@H](C1)OC1(CCCC1)C[C@@]2(C)O | 810 µM | 
10 | CC(N)C12CC3CC(CC(C3)C1)C2 (configuration not stated) [RIMANTADINE] | 319 µM | 
11 | C[C@@H]1CC[C@@H]2[C@H](C1)OC1(CCCCCCC1)C[C@@]2(C)O | 379 µM | 
12 | C[C@@H]1CC[C@@H]2[C@@H](C1)O[C@@H](C1CCCCC1)C[C@@]2(C)O | 24.2 µM | 
13 | C[C@@H]1CC[C@@H]2[C@H](C1)OC(C)(C)CC2(C)O (some centres not stated) | 72.2 µM | 

— ChEMBL document CHEMBL4118151, “Highly potent activity of isopulegol-derived substituted octahydro-2H-chromen-4-ols against influenza A and B viruses” (Bioorg Med Chem Lett, 2018)
